Data: ChEMBL document CHEMBL1122755, “Synthesis and murine antineoplastic activity of bis[(carbamoyloxy)methyl] derivatives of pyrrolo[2,1-a]isoquinoline” (1984)
Active and inactive are the calls of the source. No cut-off for these calls is given here.

Legend:
[1] = system: Mus musculus; assay: % T/C value was measured against Murine P388 Lymphocytic Leukemia cells in CDF1 mice at the dose 100 mg/kg; format: functional
[2] = system: Mus musculus; assay: % T/C value was measured against Murine P388 Lymphocytic Leukemia cells in CDF1 mice at the dose 12.5 mg/kg; format: functional
[3] = system: Mus musculus; assay: % T/C value was measured against Murine P388 Lymphocytic Leukemia cells in CDF1 mice at the dose 200 mg/kg; toxic; format: functional, organism-based; set-up: dose 200 mg/kg
[4] = system: Mus musculus; assay: % T/C value was measured against Murine P388 Lymphocytic Leukemia cells in CDF1 mice at the dose 25 mg/kg; format: functional
[5] = system: Mus musculus; assay: % T/C value was measured against Murine P388 Lymphocytic Leukemia cells in CDF1 mice at the dose 50 mg/kg; format: functional
[6] = system: Mus musculus; assay: Change in weight of P388 lymphocytic leukemia infected mice was determined when the compound was administered at dose of 100 mg/kg; format: functional
[7] = system: Mus musculus; assay: Change in weight of P388 lymphocytic leukemia infected mice was determined when the compound was administered at dose of 12.5 mg/kg; format: functional
[8] = system: Mus musculus; assay: Change in weight of P388 lymphocytic leukemia infected mice was determined when the compound was administered at dose of 25 mg/kg; format: functional
[9] = system: Mus musculus; assay: Change in weight of P388 lymphocytic leukemia infected mice was determined when the compound was administered at dose of 50 mg/kg; format: functional
[10] = system: Mus musculus; assay: % T/C value was measured against Murine P388 Lymphocytic Leukemia cells in CDF1 mice at the dose 100 mg/kg; toxic; format: functional, organism-based; set-up: dose 100 mg/kg
[11] = system: Mus musculus; assay: % T/C value was measured against Murine P388 Lymphocytic Leukemia cells in CDF1 mice at the dose 25 mg/kg; toxic; format: functional, organism-based; set-up: dose 25 mg/kg
[12] = system: Mus musculus; assay: % T/C value was measured against Murine P388 Lymphocytic Leukemia cells in CDF1 mice at the dose 3.13 mg/kg; format: functional
[13] = system: Mus musculus; assay: % T/C value was measured against Murine P388 Lymphocytic Leukemia cells in CDF1 mice at the dose 50 mg/kg; toxic; format: functional, organism-based; set-up: dose 50 mg/kg
[14] = system: Mus musculus; assay: % T/C value was measured against Murine P388 Lymphocytic Leukemia cells in CDF1 mice at the dose 6.25 mg/kg; format: functional
[15] = system: Mus musculus; assay: Change in weight of P388 lymphocytic leukemia infected mice was determined when the compound was administered at dose of 3.13 mg/kg; format: functional
[16] = system: Mus musculus; assay: Change in weight of P388 lymphocytic leukemia infected mice was determined when the compound was administered at dose of 6.25 mg/kg; format: functional
[17] = system: Mus musculus; assay: % T/C value was measured against Murine P388 Lymphocytic Leukemia cells in CDF1 mice at the dose 200 mg/kg; format: functional
[18] = system: Mus musculus; assay: Change in weight of P388 lymphocytic leukemia infected mice was determined when the compound was administered at dose of 200 mg/kg; format: functional
[19] = system: Homo sapiens; assay: Optimum % T/C value was measured against Human MX-1 breast Xenograft at the dose of 600 mg/kg (s.c.), schedule was Q01DX03 (three doses), day 1(first dose was given, tumor was implanted on day zero); format: functional
[20] = system: Homo sapiens; assay: Optimum % T/C value was measured against Human CX-1 colon Xenograft at the dose of 300-600mg/kg, schedule was Q01DX04 (four doses), day 1(first dose was given, tumor was implanted on day zero); IA means inactive; format: functional, organism-based
[21] = system: Homo sapiens; assay: Optimum % T/C value was measured against Human LX-1 lung Xenograft at the dose of 150 mg/kg, schedule was Q01DX03, day 1; format: functional
[22] = system: Mus musculus; assay: Optimum % T/C value was measured against Murine B16 melanocarcinoma cells at the dose of 12.5 mg/kg, schedule was Q01DX09, day 1; format: functional
[23] = system: Mus musculus; assay: Optimum % T/C value was measured against Murine CD8F1 mammary cells at the dose of 250 mg/kg (subcutaneous), schedule was Q01DX01 (one dose), day 21(21 dose was given, tumor was implanted on day zero); format: functional
[24] = system: Mus musculus; assay: Optimum % T/C value was measured against Murine L1210 lymphoid leukemia cells at the dose of 25 mg/kg, schedule was Q01DX09 (nine doses), day 1(first dose was given, tumor was implanted on day zero); format: functional
[25] = system: Mus musculus; assay: Optimum % T/C value was measured against Murine Lewis lung carcinoma cells at the dose of 3.12-50mg/kg, schedule was Q01DX09 (nine doses), day 1(first dose was given, tumor was implanted on day zero); inactive; format: functional, organism-based
[26] = system: Mus musculus; assay: Optimum % T/C value was measured against Murine colon 38 cells at the dose of 100 mg/kg (subcutaneous), schedule was Q01DX02 (two doses), day 2(second dose was given, tumor was implanted on day zero); format: functional, MC-38

Structure (SMILES) | T/C [1] [%] | T/C [2] [%] | T/C [3] | T/C [4] [%] | T/C [5] [%] | Weight change [6] [g] | Weight change [7] | Weight change [8] | Weight change [9] | T/C [10] | T/C [12] [%] | T/C [14] [%] | Weight change [15] [g] | Weight change [16] [g] | further results
CNC(=O)OCc1c(COC(=O)NC)c(-c2ccc(OC)cc2)n2c1CCC2 | 125 | 132 | Toxic | 132 | 131 | -4 | -3.2 g | -3.3 g | -4 g | – | – | – | – | – | –
CCNC(=O)OCc1cn2c(c1COC(=O)NCC)-c1ccccc1CC2C (stereo not drawn) | – | 185 | Toxic | – | – | – | -6 g | – | – | Toxic | 142 | 141 | -1.3 | -1.2 | T/C [11]: Toxic; T/C [13]: Toxic
CNC(=O)OCc1c(COC(=O)NC)c(-c2ccccc2)n2c1CCC2 | 124 | – | – | – | 124 | -1.8 | – | – | -2.1 g | – | – | – | – | – | T/C [17]: 60%; Weight change [18]: -3.5 g
CC1Cc2ccccc2-c2c(COC(=O)NC3CCCCC3)c(COC(=O)NC3CCCCC3)cn21 (stereo not drawn) | – | 178 | Toxic | 182 | 101 | – | -4.3% | -4.6% | -6.4% | Toxic | – | – | – | – | –
COc1ccc2c(c1)CCn1c(C)c(COC(=O)NC(=O)NC3CCCCC3)c(COC(=O)NC(=O)NC3CCCCC3)c1-2 | 92 | 134 | Toxic | 137 | 151 | -6 | -4.4 g | -6.7 g | -6.5 g | – | – | 137 | – | -3.3 | –
CNC(=O)OCc1c(COC(=O)NC)c(-c2ccc(OC)cc2)n(C)c1C | – | 138 | – | 145 | 152 | – | -3.2 g | -3.4 g | -4.4 g | Toxic | – | 135 | – | -2.4 | –
CNC(=O)OCc1cn2c(c1COC(=O)NC)-c1ccccc1CC2C (stereo not drawn) | – | 153 | Toxic | 169 | 79 | – | -4.4 g | -4.8 g | -5 g | Toxic | 138 | 138 | -0.3 | -1 | –
CNC(=O)OCc1c(COC(=O)NC)c(-c2ccccc2)n(C)c1C | – | 130 | – | 145 | 90 | – | -3.3 g | -3.9 g | -4.6 g | Toxic | – | 135 | – | -2.5 | –
COc1ccc2c(c1)CCn1c(C)c(COC(=O)NC(C)C)c(COC(=O)NC(C)C)c1-2 | – | 153 | Toxic | 153 | – | – | -3 g | -5.6 g | – | Toxic | 142 | 136 | -1.1 | -2.1 | T/C [19]: -100%; T/C [20]: inactive; T/C [21]: 55%; T/C [13]: Toxic; T/C [22]: 180%; T/C [23]: -27%; T/C [24]: 152%; T/C [25]: inactive; T/C [26]: 48%
